Experimental data published in PubChem BioAssay (NCI).
Several values for one entry are separate records, joined by “and”; a condition that tells them apart may be missing. Equal entries are not always repeated.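 Each compound was tested at five concentrations against cells in 96-well plates for 48 hours. Here, GI50 denotes the concentration required for 50% inhibition of growth. TGI marks complete inhibition of growth.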

Tests used:
Assay in all cases: NCI anticancer screen, dose series, 48 h
[1] = system: 786-0 renal
[2] = system: CAKI-1 renal
[3] = system: IGROV1 ovarian
[4] = system: KM12 colon
[5] = system: MCF7 breast
[6] = system: NCI-H226 lung
[7] = system: NCI-H23 lung
[8] = system: NCI-H522 lung
[9] = system: SK-OV-3 ovarian
[10] = system: SNB-19 CNS

SMILES | TGI [1] | TGI [2] | TGI [3] | TGI [4] | TGI [5] | TGI [6] | TGI [7] | TGI [8] | TGI [9] | TGI [10] | GI50 [2] [µM] | GI50 [3] [µM] | GI50 [5] [µM] | GI50 [6] [µM] | GI50 [4] [µM] | GI50 [7] [µM] | GI50 [8] [µM] | GI50 [9] [µM] | GI50 [10] [µM]
C[N+](C)(CCNC(=O)c1cccc2cc3ccccc3nc12)Cc1ccc([N+](=O)[O-])s1 | > 25 µM | > 25 µM | > 25 µM | > 25 µM | > 25 µM | > 25 µM | > 25 µM | > 25 µM | > 25 µM | – | – | – | – | – | – | – | – | – | –
O=C1CC2CCC(C1)S2=O (stereo not given) | > 100 µM | > 100 µM | > 100 µM | > 100 µM | > 100 µM | > 100 µM | > 100 µM | > 100 µM | > 100 µM | > 100 µM | – | – | – | – | – | – | – | – | –
CCOC(=O)C(NC(=O)OC(C)(C)C)C(=O)OCC | > 100 µM | > 100 µM | > 100 µM | > 100 µM | > 100 µM | – | > 100 µM | > 100 µM | > 100 µM | > 100 µM | – | – | – | – | – | – | – | – | –
CC(C)(C)[Si](C)(C)OCC1OC(n2cnc3c(=O)[nH]c(N)nc32)C(O[Si](C)(C)C(C)(C)C)C1O[Si](C)(C)C(C)(C)C (stereo not given) | 4.88 µM | 52.9 µM | 3.91 µM | 3.19 µM | 3.9 µM | 6.79 µM | 2.9 µM | 3.61 µM | 4.45 µM | 6.14 µM | – | – | – | – | – | – | – | – | –
CC(=O)Nc1ccccc1NC1CC(C)N(c2ccccc2)N1C(C)=O (stereo not given) | > 10 µM | > 10 µM | > 10 µM | > 10 µM | > 10 µM | – | > 10 µM | – | > 10 µM | – | – | – | – | – | – | – | – | – | –
Oc1ccc(Cl)cc1C1=NC(/N=C\c2ccccc2)=NC(c2ccccc2)C1 (stereo not given) | > 100 µM | 28.1 µM | > 100 µM | > 100 µM | > 100 µM | > 100 µM | > 100 µM | > 100 µM | 74.7 µM | – | – | – | – | – | – | – | – | – | –
CCN1CCC(O)(/C=C/c2ccc(C(C)C)cc2)C(C(=O)/C=C/c2ccc(C(C)C)cc2)C1 (stereo not given) | 3.4 µM | 8.86 µM | 6.79 µM | 4.87 µM | 14 µM | 9.06 µM | 5.88 µM | 4.21 µM | 31.8 µM | 15.5 µM | – | – | – | – | – | – | – | – | –
C=C1CN(C2=NCCO2)C1 | > 100 µM | > 100 µM | > 100 µM | > 100 µM | > 100 µM | > 100 µM | > 100 µM | – | – | > 100 µM | – | – | – | – | – | – | – | – | –
O=C(CSc1nc2ccccc2c(=O)n1-c1ccccc1)N=Nc1c(O)[nH]c2ccc(F)cc12 | 5.05 µM | 3.46 µM | – | 32.6 µM | 4.3 µM | – | 9.21 µM | – | 3.75 µM | 67.5 µM | – | – | – | – | – | – | – | – | –
COc1cc(CS(=O)c2ccc(O)cc2)cc(OC)c1OC (stereo not given) | > 100 µM | > 100 µM | > 100 µM | > 100 µM | > 100 µM | > 100 µM | > 100 µM | > 100 µM | > 100 µM | > 100 µM | – | – | – | – | – | – | – | – | –
C=C(c1ccccc1)c1ccccc1-c1cc(-c2ccccc2)cc(-c2ccccc2)n1 | > 100 µM | > 100 µM | > 100 µM | > 100 µM | > 100 µM | > 100 µM | > 100 µM | > 100 µM | – | > 100 µM | – | – | – | – | – | – | – | – | –
COC(=O)C1=C(C(=O)OC)SC2(S1)C(C(=O)OC)=C(C(=O)OC)Sc1c2ssc1=NC(C)(C)C | 2.62 µM | 4.01 µM | 3.16 µM | 3.91 µM | 3.22 µM | 12.8 µM | 6.66 µM | – | 18.1 µM | 9.77 µM | – | – | – | – | – | – | – | – | –
Cc1ccc([N+](=O)[O-])c2c(NCC(O)CO)ccnc12 (stereo not given) | > 100 µM | > 100 µM | > 100 µM | > 100 µM | > 100 µM | > 100 µM | > 100 µM | – | > 100 µM | > 100 µM | – | – | – | – | – | – | – | – | –
C=C(C(=O)O[C@H]1C(=O)C2=C(C)CCC3C(=C)C(=O)O[C@@H]3C2[C@]1(C)O)C1CC[C@]2(C)CCCC(=C)[C@H]2C1 (stereo not given in full) | 4.29 µM | 10.2 µM and 25.3 µM | 13.8 µM and 11.3 µM | 20.5 µM | 8.81 µM and 10.8 µM | 16 µM and 36.6 µM | 16.1 µM and 16.8 µM | 8.55 µM | 30.5 µM | 26.6 µM | 3.67 | 7.28 | 1.75 | 6.81 | – | – | – | – | –
COc1ccc(N2NC(c3ccccc3)(c3ccccc3)C(C)C2=O)cc1 (stereo not given) | – | > 100 µM | > 100 µM | > 100 µM | > 100 µM | > 100 µM | > 100 µM | > 100 µM | – | > 100 µM | – | – | – | – | – | – | – | – | –
O=c1ccc2nc(-c3ccccn3)nn(-c3ccccc3)c-2c1 | – | 2.84 µM | 6.65 µM | 28.9 µM | 4.71 µM | 11.9 µM | 4.84 µM | 3.09 µM | 24.1 µM | – | 1.49 | 2.63 | 0.783 | 3.2 | 14.5 | 2.19 | 1.49 | 11.1 | –
COC(=O)c1c(O)ccc2c1c1c(n2Cc2ccccc2)C(=O)c2ccccc2C1 | > 100 µM | 87.2 µM | > 100 µM | > 100 µM | > 100 µM | > 100 µM | > 100 µM | – | > 100 µM | > 100 µM | – | – | – | – | – | – | – | – | –
O=c1c2ccccc2nc(N/N=C/c2ccccc2O)n1-c1ccccc1 | 2.86 µM | > 100 µM | > 100 µM | – | > 100 µM | > 100 µM | > 100 µM | 74.7 µM | > 100 µM | > 100 µM | – | – | – | – | – | – | – | – | –
C/C=C(/C)C(=O)O[C@H]1[C@H](O)CC(c2ccc3c(c2O)C(O)=C2C(=O)C4(OC)C(O)=C(C(N)=O)C(=O)[C@H](CC(=O)c5ccccc5O)C4CC2[C@@]3(C)OC)O[C@@H]1C (stereo not given in full) | 1.43 µM and 1.35 µM | – | 2.48 µM and 0.341 µM | 0.226 µM and 0.0935 µM | 1.15 µM | 2.33 µM | 0.228 µM and 0.067 µM | 1.21 µM and 1.83 µM | 5.72 µM and 2.05 µM | 1.68 µM and 1.06 µM | – | – | – | – | – | – | – | – | –
CCN1CCC(O)(/C=C/c2ccc(OC)cc2)C(C(=O)/C=C/c2ccc(OC)cc2)C1 (stereo not given) | 12.4 µM | – | 29.8 µM | 19.9 µM | 10.7 µM | 29.7 µM | 27.9 µM | 26.1 µM | 22.5 µM | 29.9 µM | – | – | – | – | – | – | – | – | –
COc1ccc(-c2nn(-c3ccc(NC(=O)Nc4ccc(Cl)c(C(F)(F)F)c4)cc3)cc2-c2ccncc2)cc1Cl | – | 5.18 µM | 63.1 µM | 4.34 µM | 4.54 µM | 8.78 µM | 8.17 µM | 3.95 µM | – | 11 µM | 1.78 | 2.16 | 1.7 | 2.59 | 1.22 | 1.77 | 1.27 | – | 2.35
Cc1ccc(NC(=O)CSC(N)=O)cc1C | > 100 µM | > 100 µM | > 100 µM | > 100 µM | > 100 µM | > 100 µM | > 100 µM | > 100 µM | – | > 100 µM | – | – | – | – | – | – | – | – | –
